What was measured:
[1] = biological target: T1, Cyclin-dependent kinase 4/G1/S-specific cyclin-D1 [L188C] (Homo sapiens, UniProt P11802)
[2] = biological target: T1, Cyclin-dependent kinase 4/G1/S-specific cyclin-D1 [L188C]; assay: CDKs Assay

Compound | IC50 [1] [nM] | IC50 [2] [nM]
COc1ccc2cnc(Nc3ccc(N4CCNCC4)cc3)nc2c1C(C)C [7-methoxy-N-[4-(piperazin-1-yl)phenyl]-8-(propan-2-yl)quinazolin-2-amine] | 16 | –
COc1ccc2cnc(Nc3ccc(N4CCC(N)C4)cc3)nc2c1C(C)C (configuration not stated) [N-[4-(3-aminopyrrolidin-1-yl)phenyl]-7-methoxy-8-(propan-2-yl)quinazolin-2-amine] | 11 | –
COc1ccc2cnc(Nc3ccc(N4CCCC4)cc3)nc2c1C(C)C [7-methoxy-8-(propan-2-yl)-N-[4-(pyrrolidin-1-yl)phenyl]quinazolin-2-amine] | 560 | –
COc1ccc2cnc(Nc3ccc(N4CCN(C(=O)CN)CC4)cc3)nc2c1C(C)C [2-amino-1-[4-(4-{[7-methoxy-8-(propan-2-yl)quinazolin-2-yl]amino}phenyl)piperazin-1-yl]ethan-1-one] | – | 10
COc1ccc2cnc(Nc3ccc(N4CCCCC4)cc3)nc2c1C(C)C [7-methoxy-N-[4-(piperidin-1-yl)phenyl]-8-(propan-2-yl)quinazolin-2-amine] | 52 | –
COc1ccc2cnc(Nc3ccc(N4CCOCC4)cc3)nc2c1C(C)C [7-methoxy-N-[4-(morpholin-4-yl)phenyl]-8-(propan-2-yl)quinazolin-2-amine] | 52 | –
COc1ccc2cnc(Nc3ccccc3)nc2c1C(C)C [7-methoxy-N-phenyl-8-(propan-2-yl)quinazolin-2-amine] | 125 | –
COc1ccc2cnc(Nc3ccc(N4CCN(C(C)=O)CC4)cc3)nc2c1C(C)C [1-[4-(4-{[7-methoxy-8-(propan-2-yl)quinazolin-2-yl]amino}phenyl)piperazin-1-yl]ethan-1-one] | 25 | –
COc1ccc2cnc(Nc3ccc(N4CCCCC4)cc3)nc2c1C1CCCC1 [8-cyclopentyl-7-methoxy-N-[4-(piperidin-1-yl)phenyl]quinazolin-2-amine] | – | 11
COc1ccc2cnc(Nc3ccc(N4CCNCC4)cc3)nc2c1C1CCCC1 [8-cyclopentyl-7-methoxy-N-[4-(piperazin-1-yl)phenyl]quinazolin-2-amine] | – | 1
COc1ccc2cnc(Nc3ccc(N4CCNCC4)c(F)c3)nc2c1C1CCCC1 [8-cyclopentyl-N-[3-fluoro-4-(piperazin-1-yl)phenyl]-7-methoxyquinazolin-2-amine] | – | 4
COc1ccc2cnc(Nc3ccc(N4CCOCC4)cc3)nc2c1C1CCCC1 [8-cyclopentyl-7-methoxy-N-[4-(morpholin-4-yl)phenyl]quinazolin-2-amine] | – | 18
COc1ccc2cnc(Nc3ccc(N4CCN(C(=O)CN)CC4)cc3)nc2c1C1CCCC1 [2-amino-1-(4-{4-[(8-cyclopentyl-7-methoxyquinazolin-2-yl)amino]phenyl}piperazin-1-yl)ethan-1-one] | – | 2
COc1ccc2cnc(Nc3ccc(N4CCN(C(C)=O)CC4)cc3)nc2c1C1CCCC1 [1-(4-{4-[(8-cyclopentyl-7-methoxyquinazolin-2-yl)amino]phenyl}piperazin-1-yl)ethan-1-one] | – | 2
CC(C)c1c(O)ccc2cnc(Nc3ccccc3)nc12 [2-(phenylamino)-8-(propan-2-yl)quinazolin-7-ol] | – | 325
COc1ccc2cnc(Nc3ccc(N4CCC(N)C4)cc3)nc2c1C1CCCC1 (configuration not stated) [N-[4-(3-aminopyrrolidin-1-yl)phenyl]-8-cyclopentyl-7-methoxyquinazolin-2-amine] | – | 115
COc1ccc2cnc(Nc3ccc(N4CCCC4)cc3)nc2c1C1CCCC1 [8-cyclopentyl-7-methoxy-N-[4-(pyrrolidin-1-yl)phenyl]quinazolin-2-amine] | – | 1750

Source: BindingDB's records for doi:10.1016/j.bmcl.2005.05.131 (Naeja Pharmaceutical, 2005)
